Laboratory results from US12410164B2, “Heterocyclic compounds and medical use thereof” (FONDAZIONE TELETHON, priority 2018, dated 2025).
Entries after “also recorded” stand apart in the source; their conditions may differ.

Assays:
[1] = target: T1, F508del-CFTR (Homo sapiens, UniProt P13569, DEL508-508); test: HS-YFP kinetic fluorescence (iodide quenching rate) assay in CFBE41o− cells; format: cell-based; set-up: expressed in transfected cells; host or cells: CFBE41o- cells with expression of F508del-CFTR and HS-YFP (generated as in Sondo et al. 2011); settings: for AI (%) additivity index: Table 1, compound at 10 μM plus VX-809, (QRTOT − QRVX)/QRVX, HS-YFP assay; for structure-activity comparison of corrector potency/activity: relative to the analogue
T1 sequence (P13569 with tags, fused parts or gaps DEL508-508): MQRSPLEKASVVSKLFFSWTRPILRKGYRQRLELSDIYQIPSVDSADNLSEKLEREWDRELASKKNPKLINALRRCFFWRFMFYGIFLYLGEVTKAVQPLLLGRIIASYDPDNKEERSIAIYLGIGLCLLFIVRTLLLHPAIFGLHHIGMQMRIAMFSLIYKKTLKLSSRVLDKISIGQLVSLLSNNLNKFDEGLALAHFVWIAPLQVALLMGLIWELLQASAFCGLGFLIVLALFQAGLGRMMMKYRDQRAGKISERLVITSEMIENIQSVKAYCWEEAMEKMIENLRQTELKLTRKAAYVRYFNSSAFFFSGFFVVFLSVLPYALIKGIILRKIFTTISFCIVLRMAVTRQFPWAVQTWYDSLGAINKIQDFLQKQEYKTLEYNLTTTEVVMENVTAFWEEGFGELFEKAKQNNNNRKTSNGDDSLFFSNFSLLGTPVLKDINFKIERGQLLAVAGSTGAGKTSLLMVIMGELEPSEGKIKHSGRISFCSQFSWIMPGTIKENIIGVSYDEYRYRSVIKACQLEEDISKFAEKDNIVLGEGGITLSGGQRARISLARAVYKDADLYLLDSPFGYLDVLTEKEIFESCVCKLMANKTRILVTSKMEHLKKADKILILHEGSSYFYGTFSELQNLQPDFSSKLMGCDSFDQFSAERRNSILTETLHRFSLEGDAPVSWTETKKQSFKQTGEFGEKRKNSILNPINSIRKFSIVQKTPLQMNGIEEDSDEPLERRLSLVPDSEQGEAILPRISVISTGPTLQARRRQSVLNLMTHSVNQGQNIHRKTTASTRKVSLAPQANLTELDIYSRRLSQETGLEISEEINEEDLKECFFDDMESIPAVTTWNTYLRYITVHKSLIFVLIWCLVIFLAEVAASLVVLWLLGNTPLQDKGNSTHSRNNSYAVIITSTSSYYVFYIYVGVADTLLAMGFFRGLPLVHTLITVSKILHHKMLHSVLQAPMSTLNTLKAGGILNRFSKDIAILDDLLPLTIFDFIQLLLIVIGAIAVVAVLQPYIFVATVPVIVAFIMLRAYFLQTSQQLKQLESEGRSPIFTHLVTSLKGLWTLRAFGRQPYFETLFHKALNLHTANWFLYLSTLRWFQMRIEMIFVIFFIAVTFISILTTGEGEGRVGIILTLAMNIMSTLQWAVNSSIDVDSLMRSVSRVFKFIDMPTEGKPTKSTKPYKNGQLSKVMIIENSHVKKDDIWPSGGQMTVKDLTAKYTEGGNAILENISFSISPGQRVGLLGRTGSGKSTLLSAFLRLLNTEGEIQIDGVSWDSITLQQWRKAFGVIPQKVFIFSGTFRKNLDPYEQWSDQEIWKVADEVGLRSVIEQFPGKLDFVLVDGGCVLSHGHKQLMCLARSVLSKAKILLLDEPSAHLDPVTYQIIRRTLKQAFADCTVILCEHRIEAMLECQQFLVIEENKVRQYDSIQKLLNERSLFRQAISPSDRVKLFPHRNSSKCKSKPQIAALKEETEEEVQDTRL
How it was run: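 CFBE41o- cells co-expressing F508del-CFTR and HS-YFP, treated 24 h with compound (0.1-0.2% DMSO), then stimulated with 20 μM forskolin plus 50 μM genistein. Fluorescence was read for 14 s during NaI injection. Background-subtracted, normalized traces were fitted exponentially to give maximum quenching rate (QR).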

[2] = target: T1, F508del-CFTR; test: Analysis of F508del-CFTR maturation by immunoblot in CFBE41o− cells; format: cell-based; set-up: expressed in transfected cells; host or cells: CFBE41o- cells with expression of F508del-CFTR and HS-YFP (generated as in Sondo et al. 2011); settings: compound 10 μM plus VX-809 1 μM, 24 hr
Protocol: CFBE41o− cells were grown to confluence on 60-mm diameter dishes and lysed in RIPA buffer containing a complete protease inhibitor (Roche; cat. n. 11697498001). Cell lysates were centrifuged at 12000 rpm at 4° C. for 10 min. Supernatant protein concentration was calculated using the BCA assay (Euroclone; cat. n. EMP014500) following the manufacturer's instructions. Equal amounts of total protein content (30 μg) were separated onto 10% Criterion TGX Precast gels (Bio-rad laboratories Inc.; cat. n. 4561033), transferred to nitrocellulose membrane with Trans-Blot Turbo system (Bio-rad Laboratories Inc.) and analyzed by Western blotting. Primary antibody for CFTR was anti-CFTR 596 (University of North Carolina at Chapel Hill, and Cystic Fibrosis Foundation Therapeutics, see Cui L, et al. J. Mol Biol 2007, 365, 981-994) at 1:5000 dilution. As secondary antibody, anti-mouse HRP-conjugated Ab 97023 (Abcam) was used at 1:10000 dilution. Results were subsequently visualized by chemiluminescence using the SuperSignal West Femto Substrate (Thermo Scientific) and the Molecular Imager ChemiDoc XRS System.
To analyze the mechanism of action of the compounds of the invention, two types of experiments were carried out. In the first type of experiment, the electrophoretic mobility of F508del-CFTR protein was determined by immunoblot assay. This is a frequently used method to assess the effect of correctors at the protein level. In control conditions, F508del-CFTR migrates predominantly as a single band of 150 kDa called “band B”. This is the immature form of the protein residing in the endoplasmic reticulum. When the protein folding and stability is improved by correctors, an additional band appears at higher molecular weight (170 kDa). This is the so-called band C, which represents the mature form of the CFTR protein that has reached the Golgi compartment and acquired full glycosylation.

AI (%) additivity index [1]	F508del-CFTR activity (quenching rate) of combination with VX-809 ([1]; compound plus VX-809 1 μM, 24 h)	Compound	structure-activity comparison of corrector potency/activity [1]	band C (mature form) expression versus VX-809 alone [2]
207%	strong synergistic effect	CCOC(=O)c1c(Br)c2c(n1Cc1ccc(C)cc1)-c1[nH]c(=O)c(S(=O)(=O)c3ccccc3)cc1CC2 [PP008, Ethyl 7-(benzenesulfonyl)-3-bromo-1-[(4-methylphenyl)methyl]-8-oxo-4,5,8,9-tetrahydro-1H-pyrrolo[3,2-h]quinoline-2-carboxylate]	important increase in potency; also recorded: more potent than the non-halogenated analogues	markedly enhances the abundance of the mature form of the protein; also recorded: marked increase in band C expression
278%	–	CCOC(=O)c1c(Br)c2c(n1Cc1cccc(C)c1)-c1[nH]c(=O)c(S(=O)(=O)c3ccccc3)cc1CC2 [PP028, Ethyl 3-bromo 1-(3-methylbenzyl)-8-oxo-7-(phenylsulfonyl)-4,5,8,9-tetrahydro-1H-pyrrolo[3,2-h]quinoline-2-carboxylate]	important increase in efficiency in combination with the VX-809 and potency	markedly enhances the abundance of the mature form of the protein; also recorded: marked increase in band C expression
